Read-outs that look alike come from different tables or passages of the source.
What was measured:
[1] = test system: platelet rich plasma; assay: Platelet aggregation in platelet rich plasma from injected rabbit (ex vivo); conditions: injected with about 72 mg/kg of body weight; blood sample after 5 hours
Method: (§1) A rabbit is injected with about +72 mg/kg of body weight of triethyl amine bisulfite. After a period of 5 hours, a blood sample was withdrawn and centrifuged at 1000 r.p.m. (220 g) for 10 minutes to give a platelet rich plasma. […] It is concluded that triethyl amine bisulfite is an agent which inhibits thrombotic condition formation in vivo.
as §1, with “72” for “+72”, “sodium formaldehyde” for “triethyl amine”, “minuts” for “minutes”, “thrombus” for “thrombotic condition”

[2] = test system: human plasma; type: biochemical
[3] = test system: human platelet rich plasma; assay: Platelet aggregation in platelet rich plasma, platelet aggregometer (technique of Born); type: cell-based; conditions: platelet rich plasma from men
From the text: A present preference for purposes of evaluating an - antithrombotic effect is to withdraw samples of blood from a patient undergoing treatment and to measure platelet aggregation. One method is described in the paper by Born in Nature 194, pp. 927-929 (1962), which may be used for this purpose if desired.
That sodium bisulfite is an antiplatelet aggregatory agent is shown by using a platelet aggregometer based on the technique of Born (above cited).
(§2) Platelet rich plasma from rabbit and men was prepared by the centrugation technique referenced in Example 13. Using ADP (adosine diphosphate) as a stimulus rapid aggregation of platelets occurred. […] This procedure is described in the article by Born in Nature, Vol. 194, pgs. 927-929 (1962).
as §2, with “rabbits” for “rabbit”, “diphosphate) arachidonic acid” for “diphosphate)”, “stimulus,” for “stimulus”, “Born,” for “Born in”

[4] = test system: human plasma; type: biochemical; remark: listed apart in the source
[5] = test system: thrombus; assay: Antithrombotic effect in rabbit (Kelton et al); type: in vivo; conditions: 50 mg/kg
From the text: Evaluation of the antithrombotic effect of sodium formaldehyde bisulfite was caried out on a rabbit as described in Kelton et al: "Thrombogenic Effect of High Dose Aspirin in Rabbits", Journal of Clinical Investigation", Volume 62, pages 892-895, 1978.

[6] = test system: blood; assay: PT and PTT of blood after oral gavage; type: in vivo, rabbit; conditions: orally by gavage about 50 mg/kg in two spaced doses (solution of Example X); after 1 day
[7] = test system: rabbit platelet rich plasma; assay: Platelet aggregation in platelet rich plasma, platelet aggregometer (technique of Born); type: cell-based; conditions: platelet rich plasma from rabbit
Method: as §2
as §2, with “rabbits” for “rabbit”, “diphosphate) arachidonic acid” for “diphosphate)”, “stimulus,” for “stimulus”, “Born,” for “Born in”

[8] = test system: thrombus formation in the jugular vein; assay: I 125 fibrinogen technique, damaged jugular vein (venous thrombosis), continuous infusion; type: in vivo, rabbits
Method: The anti venous thrombotic effect of sodium bisulfite is evaluated in rabbits by using I ^125 fibrinogen technique as described in an article in "Archives of Surgery" Vol. 104, pg. 152 (1972).
The rabbit was continuously infused with aqueous sodium bisulfite solution at the rate of […]. (5.154 gram per hour) (animal body weight 2.3 kg) for a time of five hours. After 5 hours, the animal was sacrificed and the radioactive fibrinogen accumulated in the damaged jugular vein was determined. The radioactivity on the contra-lateral (undamaged) jugular vein was also determined to serve as a control. Concurrently, another rabbit had experienced the same procedure but received only a standard sodium chloride solution as a control. The rabbit from the normal saline solution has seven times as much radioactivity as his counterpart infused with sodium bisulfite.
Two jugular veins on a normal, healthy rabbit are exposed and one of the veins is systematically damaged by clamping in two longitudinally spaced places. The rabbit is then continuously infused with aqueous sodium formaldehyde bisulfite at the rate of […] (5.154 gram per hour) (animal body weight 2.3 kg). The rabbit is then injected with fibrinogen labeled with I^125. After 5 hours, the damaged jugular vein is evaluated for radioacive count with a Geiger counter.
This iodine 125 evaluation technique is described by Kakkar in Archieves of Surgery, Vol. 104, pg. 152 (1972) and by Kelton, J.G. et al, Journal of Clinical Investigation, Vol. 62, pgs. 892-895, (1978). […] Other rabbits, similarly evaluated, died, apparently because of overdose by the infustion technique.

[9] = continuous infusion for five hours

SMILES: O=S(=O)(O)CO [Sodium formaldehyde bisulfite]
- aggregation of platelets in comparison with an untreated rabbit [1]: markedly decreased
- PTT ([2]; 0.5 mg/ml, two different days, control 42.6 / 42.10): 56.30 s
- PTT ([2]; 0.01 Molar, control 33.4): 54.6
- PTT ([2]; coded agents 0.5mg/ml, […], control 43.38): 58.60 s
- PTT REPLICATIONS I ([2]; control 38.2 (50.5 for Sodium formaldehyde Bisulfite)): 63.5
- PTT (effect in words) ([2]; in vitro, 0.5 mg/ml): effective
- platelet aggregation, ADP (adosine diphosphate) as a stimulus [3]: strong inhibition of platelet aggregation
- PT [4]: 19.68 s
- PT ([4]; 0.01 Molar, control 12.5): 24.4
- PT ([4]; coded agents 0.5mg/ml, […], control 12.92): 19.50 s
- PT REPLICATIONS I ([4]; control 13.1 (14.1 for Sodium formaldehyde Bisulfite)): 20.5
- PT (effect in words) ([4]; in vitro, 0.5 mg/ml): effective
- disappearance of the thrombus compared with a control animal [5]: the thrombus disappeared more rapidly
- PT and PTT values of the animal's blood compared with untreated control rabbit [6]: lengthened
- platelet aggregation, ADP (adosine diphosphate) as a stimulus [7]: strong inhibition of platelet aggregation
- mortality of infused rabbits ([8]; continuous infusion): died
- radioactivity (I 125 fibrinogen) in damaged jugular vein of saline control rabbit relative to treated rabbit [8, 9]: more radioactivity
- thrombus formation in the jugular vein (conclusion in words) [8, 9]: definite positive effect of decreasing thrombus formation
